Measurements reported in patent US20250115828A1, “INACTIVATING AGENT FOR ENVELOPED VIRUSES” (priority 2022, published 2025).
Like-named read-outs stand apart in the source and are kept apart here.

How the values were obtained:
[1] = test system: Influenza A virus (H1N1, A/PR/8/34) ATCC VR-1469; assay: Anti-influenza virus verification test (focus assay on MDCK cells); assay type: cell-based; settings: for Evaluation result (Δ LOG (FFU/mL) class) / Minimum inactivation concentration: Influenza virus; for Minimum inactivation concentration: minimum concentration at which Δ LOG (FFU/mL) is 3 or more; for inactivation effect in the presence of hardness components (in words): Table 5: influenza virus, 4 °DH, contact 10 min
[2] = test system: Betacoronavirus 1 (OC43) ATCC VR-1558; assay: Anti-human coronavirus verification test (TCID50 on HCT-8 cells); assay type: cell-based
[3] = Critical micelle concentration at 25° C. by pyrene fluorescence intensity ratio I1/I3; assay type: physicochemical; settings: ion exchange water
Experimental: A critical micelle concentration of component (a) or (a′) at 25° C. was measured by the method below.
A 1×10^−3 mol/L ethanol solution of pyrene (FUJIFILM Wako Pure Chemical Corporation) was prepared in a brown screw cap tube, and 5 μl of the solution was placed in a screw cap tube (No. 3) and dried with dry air. 5 mL of an aqueous solution of component (a) or (a′) to be measured (prepared with ion exchange water) was added thereto and processed with an ultrasonic cleaner for 15 minutes, and using this, fluorescence spectrum measurements were performed with a fluorescence spectrophotometer (Fluorescence Spectrophotometer F-7000 (manufactured by Hitachi High-Tech Corporation)). Fluorescence intensities I1 and I3 at wavelengths λ1 of 373 nm and λ3 of 384 nm were measured under the measurement conditions below to calculate fluorescence intensity ratio I1/I3.
A graph was prepared on which the horizontal axis plots a concentration of component (a) or (a′) and the vertical axis plots a fluorescence intensity ratio I1/I3, at each concentration, and a surfactant concentration at the midpoint between the maximum value and the minimum value of I1/I3 was taken as the critical micelle concentration.
Excitation wavelength: 339 nm, slit on the excitation side: […], slit on the fluorescence side: […], scanning rate: 60 nm/min, liquid temperature: 25° C., measurement range: 350 to 400 nm

[4] = test system: Pseudomonas syringae phage ϕ6 (NBRC 105899); assay: Anti-bacteriophage ϕ6 verification test (plaque assay); assay type: cell-based; settings: Bacteriophage Φ6; hardness of water 0 °DH; contact time 10 min; minimum concentration at which Δ LOG (PFU/mL) is 3 or more
[5] = Krafft point measurement with rhodamine 6G; assay type: physicochemical; settings: 0.2 mass % in ion exchange water
Experimental: A krafft point of component (a) or (a′) was measured by the method below.
A solution obtained by diluting component (a) or (a′) with ion exchange water to attain a total amount of 5 mL and a concentration of 0.2 mass % was prepared and placed in a glass test tube, and the fluorescent dye rhodamine 6G (FUJIFILM Wako Pure Chemical Corporation) was then added to attain a final concentration of 0.02 mM. After the test tube was placed in an ice bath to condition a temperature at 5° C., the temperature was raised at a temperature rise rate of 0.5° C./min, and a temperature at which the solution emitted fluorescence was taken as the krafft point. Component (a) or (a′) which had emitted fluorescence at 5° C. was considered to have a krafft point of less than 5° C.

[6] = 100 ppm, hardness of water 0 °DH, contact time 0.5 min
[7] = 100 ppm, hardness of water 0 °DH, contact time 1 min
[8] = 100 ppm, hardness of water 0 °DH, contact time 5 min
[9] = 100 ppm, hardness of water 0 °DH, contact time 10 min
[10] = hardness of water 0 °DH, contact time 10 min
[11] = Human coronavirus, hardness of water 0 °DH, contact time 10 min, […]
[12] = 500 ppm, hardness of water 4 °DH, contact time 10 min

Row | Compound | Evaluation result (Δ LOG (FFU/mL) class) [1, 6] | Evaluation result (Δ LOG (FFU/mL) class) [1, 7] | Evaluation result (Δ LOG (FFU/mL) class) [1, 8] | Evaluation result (Δ LOG (FFU/mL) class) [1, 9] | Minimum inactivation concentration [1, 10] [ppm] | Minimum inactivation concentration [2] [ppm] | critical micelle concentration (25° C.) [3] [mol/L] | Minimum inactivation concentration [4] [ppm] | krafft point [5] [°C] | Minimum inactivation concentration [2, 11] | Evaluation result (Δ LOG (FFU/mL) class) [1, 12] | inactivation effect in the presence of hardness components (in words) ([1]; 500 ppm) | inactivation effects on the enveloped virus by short-time contact (in words) ([1]; Table 4: influenza virus, 100 ppm, 0 °DH, contact 0.5 to 10 min, compared to comparative examples 5 and 6)
1 | CCCCC(CC)COC(=O)CC(C(=O)OCC(CC)CCCC)S(=O)(=O)[O-].[Na+] (stereo not shown) [(a′-1), sodium di(2-ethylhexyl)sulfosuccinate] | 1 (a Δ LOG (FFU/mL) of the infectious titers of less than 1) | 1 (a Δ LOG (FFU/mL) of the infectious titers of less than 1) | 1 (a Δ LOG (FFU/mL) of the infectious titers of less than 1) | 2 (a Δ LOG (FFU/mL) of 1 or more and less than 2) | 250 | >250 | 0.0028 | 250 | – | – | – | – | –
2 | CCCCCCCCCCCCCCCCOS(=O)(=O)[O-].[Na+] [(a′-3), sodium alkyl sulfate with 16 carbons] | – | – | – | – | >500 | – | 0.00045 | >500 | 40 | >>2000 ppm | – | – | –
3 | CCCCCCCCCCCCOS(=O)(=O)[O-].[Na+] [(a′-4), sodium alkyl sulfate with 12 carbons] | – | – | – | – | >500 | – | 0.0082 | >500 | – | >2000 ppm | – | – | –
4 | CCCCCCCC/C=C\CCCCCCCC(=O)[O-].[K+] [(a′-5), potassium oleate] | – | – | – | – | – | – | 0.0015 | – | – | – | 1 (a Δ LOG (FFU/mL) of the infectious titers of less than 1) | insufficient inactivation effect | –
5 | sodium di(2-propylheptyl)sulfosuccinate [(a-1)] | 4 (a Δ LOG (FFU/mL) of 3 or more) | 4 (a Δ LOG (FFU/mL) of 3 or more) | 4 (a Δ LOG (FFU/mL) of 3 or more) | 4 (a Δ LOG (FFU/mL) of 3 or more) | 50 | – | 0.00035 | 10 | – | 100 ppm | 4 (a Δ LOG (FFU/mL) of 3 or more) | high inactivation effects | high inactivation effects
